Activity calls are given as the source filed them. The calls are words filed in the database; no cut-off is given here. Peptide text beside a SMILES is read from it. * marks the point of attachment. Palmitoyl = CCCCCCCCCCCCCCCC(=O)*
Tests used:
NHDF [1] = assay: Upregulation of collagen level in neonatal HDF cell lysate at 20 uM incubated for 72 hrs by Western blot analysis; type: functional, subcellular; conditions: Homo sapiens
[2] = Upregulation of procollagen level in neonatal HDF cell conditioned media at 20 uM incubated for 72 hrs by Western blot analysis relative to control; type: functional, Homo sapiens, NHDF
NHDF [3] = assay: Downregulation of enzyme-digested low molecular weight collagen level in neonatal HDF cell conditioned media at 20 uM incubated for 48 hrs by Western blot analysis; type: functional, cell-based; conditions: Homo sapiens
[4] = Stability of compound in human skin homogenate assessed as dermal protease mediated stability by measuring compound remaining measured after 24 hrs by HPLC-MS/MS analysis; type: ADME, tissue-based, Skin of body; conditions: read-out: Stability
NHDF [5] = assay: Cytotoxicity against neonatal HDF cells assessed as reduction in cell viability incubated for 72 hrs by MTS assay; type: toxicity, cell-based; conditions: human
NHDF [6] = assay: Inhibition of cell invasion in neonatal HDF cells assessed as decrease in number of migrated cells in acceptor chamber at 20 uM incubated for 72 hrs by Boyden chamber invasion assay; type: functional, cell-based; conditions: Homo sapiens
[7] = biological target: Matrix metalloproteinase-9 (Homo sapiens) (UniProt P14780); assay: Inhibition of MMP-9 (unknown origin)
Matrix metalloproteinase-9 (Homo sapiens), sequence (P14780 whole entry): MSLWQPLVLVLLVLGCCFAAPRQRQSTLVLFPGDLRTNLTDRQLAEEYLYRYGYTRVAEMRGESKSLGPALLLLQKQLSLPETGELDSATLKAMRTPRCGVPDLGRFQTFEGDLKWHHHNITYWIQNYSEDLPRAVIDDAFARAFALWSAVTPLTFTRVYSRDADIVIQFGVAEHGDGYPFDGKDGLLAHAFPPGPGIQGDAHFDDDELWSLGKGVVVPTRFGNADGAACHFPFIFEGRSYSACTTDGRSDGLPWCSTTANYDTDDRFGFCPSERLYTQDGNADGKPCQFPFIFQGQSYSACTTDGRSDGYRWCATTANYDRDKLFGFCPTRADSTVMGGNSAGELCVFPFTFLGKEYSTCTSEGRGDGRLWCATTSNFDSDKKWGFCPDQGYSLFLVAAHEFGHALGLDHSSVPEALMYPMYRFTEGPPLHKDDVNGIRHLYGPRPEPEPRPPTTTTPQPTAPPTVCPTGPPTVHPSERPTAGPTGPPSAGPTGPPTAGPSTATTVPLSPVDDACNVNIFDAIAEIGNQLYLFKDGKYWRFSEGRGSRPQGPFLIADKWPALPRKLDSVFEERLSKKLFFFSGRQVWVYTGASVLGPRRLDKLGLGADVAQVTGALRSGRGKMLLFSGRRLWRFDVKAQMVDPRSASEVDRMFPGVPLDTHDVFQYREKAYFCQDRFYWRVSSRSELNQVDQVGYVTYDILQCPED

[8] = biological target: T1, Neutrophil elastase (Homo sapiens) (UniProt P08246); assay: Inhibition of neutrophil elastase (unknown origin)
T1 sequence (whole entry): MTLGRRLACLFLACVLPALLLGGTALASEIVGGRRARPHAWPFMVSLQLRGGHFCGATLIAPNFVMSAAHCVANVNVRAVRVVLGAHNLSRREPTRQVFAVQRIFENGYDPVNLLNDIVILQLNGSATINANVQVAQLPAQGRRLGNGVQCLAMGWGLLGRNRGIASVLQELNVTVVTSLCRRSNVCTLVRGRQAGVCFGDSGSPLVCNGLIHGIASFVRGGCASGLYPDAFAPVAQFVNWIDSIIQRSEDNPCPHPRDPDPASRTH

Q: For Ac-MGKVVNPTQK-NH2, which Activity (NHDF [1]) is on record?
A: Its Activity is “Active”.

Q: What about the Activity [2] of the same compound?
A: Its Activity is 57%.

Q: What about the Activity (NHDF [3]) of the same compound?
A: Its Activity is “Active”.

Q: Which remaining at 24 h [4] does the source give for `CCCCCCCCCCCCCCCC(=O)N[C@@H](CCCCN)C(=O)N[C@H](C(=O)N[C@H](C(=O)N[C@@H](CCCCN)C(=O)N[C@@H](CO)C(=O)O)[C@@H](C)O)[C@@H](C)O` (Palmitoyl-KTTKS-OH) here?
A: The remaining at 24 h was 36%.

Q: With `CC(=O)N1CCC[C@H]1C(=O)N[C@H](C(=O)N[C@@H](CCC(N)=O)C(=O)N[C@@H](CCCCN)C(N)=O)[C@@H](C)O` (Ac-PTQK-NH2) as the compound, how does the Activity (NHDF [5]) read?
A: The Activity was “Non-Toxic”.

Q: And the Activity (NHDF [1])?
A: The Activity was “Active”.

Q: And the Activity [2]?
A: Its Activity is 31%.

Q: And the Activity (NHDF [3])?
A: The Activity was “Active”.

Q: Which Activity (NHDF [5]) does the source give for `CC(=O)N[C@H](CCCCN)C(=O)N[C@@H](C(=O)N[C@@H](C(=O)N[C@H](CC(N)=O)C(N)=O)C(C)C)C(C)C` here?
A: The Activity was “Non-Toxic”.

Q: What about the Activity (NHDF [1]) of the same compound?
A: Its Activity is “Active”.

Q: What does the source list for `CC(=O)N[C@H](CC(N)=O)C(=O)N[C@@H](C(=O)N[C@@H](C(=O)N[C@H](CCCCN)C(N)=O)C(C)C)C(C)C`?
A: Activity (NHDF [5]): Non-Toxic; remaining at 24 h [4]: 99.6%; Activity (NHDF [1]): Active; inhibition (NHDF [6]): Active; inhibition [7]: inactive; inhibition [8]: inactive

Q: With `CC(=O)N[C@H](C(=O)N[C@@H](CC(N)=O)C(=O)N1CCC[C@H]1C(=O)N[C@H](C(N)=O)[C@@H](C)O)C(C)C` (Ac-VNPT-NH2) as the compound, how does the Activity (NHDF [5]) read?
A: The Activity was “Non-Toxic”.

Q: What about the Activity (NHDF [1]) of the same compound?
A: The Activity was “Active”.

Q: And the Activity [2]?
A: Its Activity is 48%.

Q: And the Activity (NHDF [3])?
A: Its Activity is “Active”.

Q: What does the source list for `CC(=O)N[C@@H](CCCCN)C(=O)N[C@H](C(=O)N[C@H](C(=O)N[C@@H](CC(N)=O)C(N)=O)C(C)C)C(C)C`?
A: Activity (NHDF [5]): Non-Toxic; Activity (NHDF [1]): Active; Activity [2]: 87%; Activity (NHDF [3]): Active

Q: Which results are given for `CSCC[C@H](NC(C)=O)C(=O)NCC(=O)N[C@@H](CCCCN)C(=O)N[C@H](C(N)=O)C(C)C` (Ac-MGKV-NH2)?
A: Activity (NHDF [5]): Non-Toxic; Activity (NHDF [1]): Active; Activity [2]: 116%; Activity (NHDF [3]): Active

Reference: ChEMBL document CHEMBL5518222, “Retro-Inverso Collagen Modulator Peptide Derived from Serpin A1 with Enhanced Stability and Activity In Vitro” (J Med Chem, 2024)
